Results taken from US20200368234A1, “PHOTORECEPTOR GENE MODULATOR PHOTOREGULIN 3 FOR TREATMENT OF RETINAL DISEASE” (University of Washington, priority 2017, published 2020).
Entries after “also recorded” stand apart in the source; their conditions may differ.

How the values were obtained:
Rho^P23H mice [1] = assay: Photoreceptor degeneration in Rho^P23H mice: histology and qPCR at P21; type: in vivo, mouse; details: 10 mg/kg i.p. from P12-P14 until P21, vs DMSO vehicle
Description: FIG. 3A illustrates the timeline of photoreceptor degeneration in the Rhodopsin^P23H mouse and experimental design.
To determine whether photoreceptor degeneration can be prevented, Rho^P23H mice were treated with PR3 or vehicle from P12-P14 until P21, during the period of rod photoreceptor death (FIG. 3A). At P21, visual function was assessed with ERGs and euthanized the mice for histological and qPCR analyses. At P21, control Rho^P23H mice had only 2-3 rows of photoreceptors remaining in their ONL (FIGS. 3B and 3C). Rods were sparse and there were few remaining cones (S Opsin+ and Cone Arrestin+ photoreceptors). Control Rho^P23H mice had minimal scotopic and photopic b-wave amplitudes by ERG analysis (FIGS. 4A, 4B, 4D, and 4E). […]
(§1) Photoregulin3 was identified by searching previous small molecule screens with SciFinder and PubChem for Nr2e3 interacting molecules. It was initially obtained from ChemDiv and then synthesized and purified in large quantities in the lab after initial screening. […]
RNA from retinas was isolated using TRIzol (Invitrogen) and cDNA was synthesized using the iScript cDNA synthesis kit (Bio-Rad). SSO Fast (Bio-Rad) was used for quantitative real-time PCR. For analysis, values were normalized to Gapdh (ΔCt) and ΔΔCt between DMSO and compound-treated samples was expressed as percent of DMSO treated controls (100*2^ΔΔCt). […]

Rho^P23H mice [2] = assay: ERG visual function in Rho^P23H mice at P21; type: in vivo, mouse; details: 10 mg/kg PR3, vs littermate DMSO controls
Description: FIG. 4A compares scotopic b-wave amplitudes from P21 Rhodopsin^P23H mice treated with 10 mg/kg PR3 or DMSO vehicle (n=4-8, *p<0.05, t-test).
FIG. 4D compares photopic b-wave amplitudes from P21 Rhodopsin^P23H mice treated with 10 mg/kg PR3 or DMSO vehicle (n=4-8, *p<0.05, t-test).
To determine whether photoreceptor degeneration can be prevented, Rho^P23H mice were treated with PR3 or vehicle from P12-P14 until P21, during the period of rod photoreceptor death (FIG. 3A). At P21, visual function was assessed with ERGs and euthanized the mice for histological and qPCR analyses. At P21, control Rho^P23H mice had only 2-3 rows of photoreceptors remaining in their ONL (FIGS. 3B and 3C). Rods were sparse and there were few remaining cones (S Opsin+ and Cone Arrestin+ photoreceptors). Control Rho^P23H mice had minimal scotopic and photopic b-wave amplitudes by ERG analysis (FIGS. 4A, 4B, 4D, and 4E). […] The surviving cones in the PR3-treated retinas were more elongated and healthier than in the DMSO control retinas.
as §1, with “screening. For in vivo experiments, mice were injected intraperitoneally with PR3 dissolved in DMSO at 10 mg/kg.” for “screening.”

COc1cc2nc(CN3CC=C(c4ccccc4)CC3)nc(O)c2cc1OC [PR3]
expression of photoreceptor genes in whole retinas (qPCR) (Rho^P23H mice [1]): greater expression of photoreceptor genes Recoverin, Rhodopsin, and S Opsin; also recorded: more expression of Recoverin and Rhodopsin | rows of photoreceptors (DAPI+ cells) in the ONL (Rho^P23H mice [1]): greater survival of photoreceptors; also recorded: several rows of rod and cone photoreceptors in the ONL | photopic b-wave amplitudes (ERG) (Rho^P23H mice [2]): significantly elevated | scotopic b-wave amplitudes (ERG) (Rho^P23H mice [2]): significantly elevated
